Patent US9802941B2, “Compounds and methods for inhibiting histone demethylases” (Gilead Sciences, Inc., priority 2014, dated 2017)
Read-outs that look alike come from different tables or passages of the source.

What was measured:
Assay type in all cases: biochemical
KDM2B (FBXL10) = biological target: T1, KDM2B (FBXL10) (Homo sapiens, UniProt Q8NHM5); test: Histone lysine demethylase AlphaLISA assay, KDM2B
T1 construct: KDM2B; BPS,; 1-650; Bac; purchased BPS Bioscience, US; host or cells: baculovirus system
T1 sequence (Q8NHM5 1-650): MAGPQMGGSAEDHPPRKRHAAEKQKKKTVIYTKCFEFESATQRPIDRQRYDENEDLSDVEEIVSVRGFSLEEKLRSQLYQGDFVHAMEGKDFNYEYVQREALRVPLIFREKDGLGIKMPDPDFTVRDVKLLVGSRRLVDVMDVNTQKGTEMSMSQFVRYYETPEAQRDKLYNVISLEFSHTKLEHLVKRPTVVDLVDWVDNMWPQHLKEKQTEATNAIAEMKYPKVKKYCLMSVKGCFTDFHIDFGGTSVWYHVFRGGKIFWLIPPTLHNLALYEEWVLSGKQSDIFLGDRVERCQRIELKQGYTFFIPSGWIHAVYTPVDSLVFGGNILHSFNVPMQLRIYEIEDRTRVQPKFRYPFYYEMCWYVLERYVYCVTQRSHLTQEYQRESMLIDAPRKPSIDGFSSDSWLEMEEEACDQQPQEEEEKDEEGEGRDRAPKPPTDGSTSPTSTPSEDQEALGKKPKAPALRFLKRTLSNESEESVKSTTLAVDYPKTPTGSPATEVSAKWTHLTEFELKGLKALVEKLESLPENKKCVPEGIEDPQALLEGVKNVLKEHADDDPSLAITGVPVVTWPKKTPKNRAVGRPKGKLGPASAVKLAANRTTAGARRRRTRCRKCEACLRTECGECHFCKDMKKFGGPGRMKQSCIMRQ
Experimental: (§1) The compounds of the application, or a pharmaceutically acceptable salt, or solvate, or prodrug thereof, are tested in an in vitro AlphaLISA assay. Enzymes are dissolved in enzyme buffer and incubated before they are added to DMSO solutions of compounds of the application, or a pharmaceutically acceptable salt, or solvate, or prodrug thereof, in enzyme buffer. The reaction mixture is then incubated for an additional period of time before substrate solution is added and then the resulting mixture again incubated. Acceptor beads and suspended Epigenetic Buffer from stock are added and the suspension is again incubated before a suspension of streptavidin donor beads in Epigenetic Buffer is added. After an additional period of incubation, the plates are read.
(§2) The ability of compounds of the application to inhibit the histone lysine demethylase activity in vitro of different enzymes was determined.
(§3) The reaction mixture was incubated for another 10 minutes before 5 μL of substrate solution was added and the resulting mixture was then incubated at room temperature. […] After incubation at room temperature in the dark, the plates were read.
(§4) Enzyme Buffer: 50 mM Hepes (pH 7.4-8.0), 0.003-0.01% Tween-20, 0.1% BSA; 5 μM (NH4)2Fe(SO4)2.

PHF8 (KDM7) = biological target: T2, PHF8 (KDM7) (Homo sapiens, UniProt Q9UPP1); test: Histone lysine demethylase AlphaLISA assay, PHF8
T2 construct: KDM7 (PHF8); BRIC; 1-1322; Bac
T2 sequence (Q9UPP1 37-440 limits assumed): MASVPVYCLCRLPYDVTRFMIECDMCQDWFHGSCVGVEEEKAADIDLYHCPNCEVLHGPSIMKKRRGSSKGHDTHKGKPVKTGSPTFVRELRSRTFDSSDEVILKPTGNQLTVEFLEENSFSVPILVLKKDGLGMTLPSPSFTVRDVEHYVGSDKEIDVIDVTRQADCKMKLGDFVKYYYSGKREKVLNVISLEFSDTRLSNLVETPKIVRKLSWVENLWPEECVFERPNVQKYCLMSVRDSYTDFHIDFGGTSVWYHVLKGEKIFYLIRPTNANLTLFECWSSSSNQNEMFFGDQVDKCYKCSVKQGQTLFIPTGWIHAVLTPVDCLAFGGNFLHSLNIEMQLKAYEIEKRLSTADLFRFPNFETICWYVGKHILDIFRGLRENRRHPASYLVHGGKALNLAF
Experimental: as §1, §2, §3, §4

KDM5B (PLU-1) = biological target: T3, KDM5B (PLU-1) (Homo sapiens, UniProt Q9UGL1); test: Histone lysine demethylase AlphaLISA assay, KDM5B
T3 construct: BRIC; 1-809; E. coli; host or cells: E. coli
T3 sequence (Q9UGL1 1-809): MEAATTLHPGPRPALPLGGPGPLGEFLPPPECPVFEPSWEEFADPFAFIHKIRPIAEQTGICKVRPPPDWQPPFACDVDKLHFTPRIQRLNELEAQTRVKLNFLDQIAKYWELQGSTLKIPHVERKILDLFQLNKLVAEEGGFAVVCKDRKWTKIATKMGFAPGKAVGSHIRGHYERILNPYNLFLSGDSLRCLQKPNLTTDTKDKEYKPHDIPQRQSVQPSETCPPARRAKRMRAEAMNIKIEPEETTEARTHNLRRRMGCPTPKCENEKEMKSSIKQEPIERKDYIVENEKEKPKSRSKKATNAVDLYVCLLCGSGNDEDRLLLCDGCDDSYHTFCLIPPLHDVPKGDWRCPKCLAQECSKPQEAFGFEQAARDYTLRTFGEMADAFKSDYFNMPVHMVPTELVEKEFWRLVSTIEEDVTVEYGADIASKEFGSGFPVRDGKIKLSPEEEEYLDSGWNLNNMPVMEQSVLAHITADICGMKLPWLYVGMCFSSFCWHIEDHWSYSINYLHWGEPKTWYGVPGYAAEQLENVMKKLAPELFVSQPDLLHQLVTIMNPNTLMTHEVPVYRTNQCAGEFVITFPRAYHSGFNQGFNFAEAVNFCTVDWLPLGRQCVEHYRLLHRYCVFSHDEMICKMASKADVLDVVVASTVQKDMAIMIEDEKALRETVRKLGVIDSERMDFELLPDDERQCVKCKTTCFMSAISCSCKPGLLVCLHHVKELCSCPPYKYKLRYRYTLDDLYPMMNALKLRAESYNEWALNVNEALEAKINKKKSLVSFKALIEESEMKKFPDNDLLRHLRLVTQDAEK
Experimental: as §1, §2, §3, §4

KDM4C (JMJD2C) = biological target: T4, KDM4C (JMJD2C) (Homo sapiens, UniProt Q9H3R0); test: Histone lysine demethylase AlphaLISA assay, KDM4C
T4 construct: KDM4C; BRIC, Denmark; 1-349; E. coli; host or cells: E. coli
T4 sequence (Q9H3R0 1-349): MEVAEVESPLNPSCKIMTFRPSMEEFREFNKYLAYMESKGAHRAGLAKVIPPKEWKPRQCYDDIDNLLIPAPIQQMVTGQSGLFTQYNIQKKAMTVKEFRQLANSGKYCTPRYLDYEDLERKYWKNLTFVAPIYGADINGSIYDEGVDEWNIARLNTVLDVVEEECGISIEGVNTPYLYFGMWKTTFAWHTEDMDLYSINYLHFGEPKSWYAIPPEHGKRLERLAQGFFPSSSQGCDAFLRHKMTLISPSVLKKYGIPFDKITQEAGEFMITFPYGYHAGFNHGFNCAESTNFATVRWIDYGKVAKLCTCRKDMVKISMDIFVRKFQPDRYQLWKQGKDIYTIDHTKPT
Experimental: as §1, §2, §3, §4

[1] = AlphaLISA assay, read-out: HDME Inhibition KDM2B (IC50)
[2] = AlphaLISA, in vitro, read-out: HDME Inhibition KDM2B
[3] = AlphaLISA assay, read-out: HDME Inhibition PHF8 (IC50)
[4] = AlphaLISA, in vitro, read-out: HDME Inhibition PHF8
[5] = AlphaLISA assay, read-out: HDME Inhibition KDM5B (IC50)
[6] = AlphaLISA, in vitro, read-out: HDME Inhibition KDM5B
[7] = AlphaLISA assay, read-out: HDME Inhibition KDM4C (IC50)
[8] = AlphaLISA, in vitro, read-out: HDME Inhibition KDM4C

SMILES | IC50 (KDM2B (FBXL10); [1]) [µM] | IC50 (KDM2B (FBXL10); [2]) [µM] | IC50 (PHF8 (KDM7); [3]) [µM] | IC50 (PHF8 (KDM7); [4]) [µM] | IC50 (KDM5B (PLU-1); [5]) [µM] | IC50 (KDM5B (PLU-1); [6]) [µM] | IC50 (KDM4C (JMJD2C); [7]) [µM] | IC50 (KDM4C (JMJD2C); [8]) [µM] | IC50 (KDM5B (PLU-1)) [µM]
COc1ccc(O)c(CCNCc2cc(C(=O)O)cc(CO)n2)n1 [Compound 109, 2-({[2-(3-hydroxy-6-methoxypyridin-2-yl)ethyl]amino}methyl)-6-(hydroxymethyl)pyridine-4-carboxylic acid] | > 10 | > 10 | > 10 | > 10 | > 10 | > 10 | > 10 | > 10 | –
Cc1cc(C(=O)O)cc(CNCCc2nncn2Cc2ccc(C(F)(F)F)cc2)n1 [Compound 60, 2-methyl-6-({[2-(4-{[4-(trifluoromethyl)phenyl]methyl}-4H-1,2,4-triazol-3-yl)ethyl]amino}methyl)pyridine-4-carboxylic acid] | – | 1.62 | > 10 | > 10 | – | 0.526 | > 10 | > 10 | –
O=C(O)c1cc(CO)nc(CNCc2nncn2CCc2cc(Cl)cc(Cl)c2)c1 [Compound 55, 2-{[({4-[2-(3,5-dichlorophenyl)ethyl]-4H-1,2,4-triazol-3-yl}methyl)amino]methyl}-6-(hydroxymethyl)pyridine-4-carboxylic acid] | – | 0.656 | – | 1.3 | – | – | > 10 | > 10 | 1.78
CC(C)C[C@@H](CO)NCc1cc(C(=O)O)cc(CO)n1 [Compound 79, 2-({[(2S)-1-hydroxy-4-methylpentan-2-yl]amino}methyl)-6-(hydroxymethyl)pyridine-4-carboxylic acid] | > 10 | > 10 | > 10 | > 10 | > 10 | > 10 | > 10 | > 10 | –
Cc1cc(C(=O)O)cc(CNCCc2ncccc2C2=CCCC2)n1 [Compound 59, 2-[({2-[3-(cyclopent-1-en-1-yl)pyridin-2-yl]ethyl}amino)methyl]-6-methylpyridine-4-carboxylic acid] | – | 2.75 | > 10 | > 10 | – | – | – | – | –
Cc1cc(C(=O)O)cc(CNCc2nnc(C)n2-c2cccc(Cl)c2)n1 [Compound 58, 2-[({[4-(3-chlorophenyl)-5-methyl-4H-1,2,4-triazol-3-yl]methyl}amino)methyl]-6-methylpyridine-4-carboxylic acid] | > 10 | > 10 | > 10 | > 10 | > 10 | > 10 | – | – | –
COc1ccc(OCCc2ccccc2)c(CNCc2cc(C(=O)O)cc(C)n2)n1 [Compound 104, 2-[({[6-methoxy-3-(2-phenylethoxy)pyridin-2-yl]methyl}amino)methyl]-6-methylpyridine-4-carboxylic acid] | – | 0.145 | – | 0.4 | > 10 | > 10 | – | – | –
Cc1cc(C(=O)O)cc(CNCc2nocc2COc2ccc(F)cc2)n1 [Compound 76, 2-[({[4-(4-fluorophenoxymethyl)-1,2-oxazol-3-yl]methyl}amino)methyl]-6-methylpyridine-4-carboxylic acid] | – | 4.73 | > 10 | > 10 | > 10 | > 10 | – | – | –
COc1ccc(CC(C)C)c(CNCc2cc(C(=O)O)cc(C)n2)n1 [Compound 74, 2-[({[6-methoxy-3-(2-methylpropyl)pyridin-2-yl]methyl}amino)methyl]-6-methylpyridine-4-carboxylic acid] | – | 1.86 | – | 3.81 | > 10 | > 10 | – | – | –

Next, values leading:

IC50 (KDM2B (FBXL10); [1]) [µM] | IC50 (KDM2B (FBXL10); [2]) [µM] | IC50 (PHF8 (KDM7); [3]) [µM] | IC50 (PHF8 (KDM7); [4]) [µM] | IC50 (KDM5B (PLU-1); [5]) [µM] | IC50 (KDM5B (PLU-1); [6]) [µM] | IC50 (KDM4C (JMJD2C); [7]) [µM] | IC50 (KDM4C (JMJD2C); [8]) [µM] | IC50 (KDM5B (PLU-1)) [µM] | SMILES
– | 0.585 | – | 1.27 | – | – | – | 3.47 | 0.246 | O=C(O)c1cc(CO)nc(CNCc2nc(CO)cn2Cc2ccc(F)cc2)c1 [Compound 88, 2-{[({1-[(4-fluorophenyl)methyl]-4-(hydroxymethyl)-1H-imidazol-2-yl}methyl}amino]methyl}-6-(hydroxymethyl)pyridine-4-carboxylic acid]
– | 0.692 | – | 1.04 | > 10 | > 10 | > 10 | > 10 | – | Cc1cc(C(=O)O)cc(CNCc2ncc(CN(C)C)n2Cc2ccc(F)cc2)n1 [Compound 50, 2-{[({5-[(dimethylamino)methyl]-1-[(4-fluorophenyl)methyl]-1H-imidazol-2-yl}methyl)amino]methyl}-6-methylpyridine-4-carboxylic acid]
– | 0.056 | – | 0.16 | > 10 | > 10 | > 10 | > 10 | – | C=C(C)c1cnc(CNCc2cc(C(=O)O)cc(C)n2)n1Cc1ccc(F)cc1 [Compound 103, 2-{[({1-[(4-fluorophenyl)methyl]-5-(prop-1-en-2-yl)-1H-imidazol-2-yl}methyl)amino]methyl}-6-methylpyridine-4-carboxylic acid]
– | 0.659 | – | 0.859 | > 10 | > 10 | > 10 | > 10 | – | C/C=C/c1cnc(CNCc2cc(C(=O)O)cc(C)n2)n1Cc1ccc(F)cc1 [Compound 42, 2-{[({1-[(4-fluorophenyl)methyl]-5-[(1E)-prop-1-en-1-yl]-1H-imidazol-2-yl}methyl)amino]methyl}-6-methylpyridine-4-carboxylic acid]
– | 3.1 | – | 2.77 | > 10 | > 10 | – | – | – | COC(=O)c1cn(Cc2ccc(F)cc2)c(CNCc2cc(C(=O)O)cc(CO)n2)n1 [Compound 106, 2-{[({1-[(4-fluorophenyl)methyl]-4-(methoxycarbonyl)-1H-imidazol-2-yl}methyl)amino]methyl}-6-(hydroxymethyl)pyridine-4-carboxylic acid]
